In patent publication US20040259764A1, “Reticulocyte depletion signatures” (priority 2002, published 2004):
Where two headings read alike, the source gives them in different places. Marks after values point to notes of the source that are not given here.

Experiments:
[1] = system: Reticulocyte Depletion Signature (Alas2 and peripherin probes), bone marrow
Source text: (§1) Compound dosing was based on the acute dose LD50s recorded in published reference or literature sources. […] The MTD (maximum tolerated dose) was then selected as the dose at which the animals […] 5-10% body weight during the 5-day range finding study. […] In addition, the clinical observations must show no or mild clinical signs during the whole of the range-finding study. At the next highest dose, signs and symptoms of adverse effects and exceeding those of the MTD should be seen to occur. Should these criteria not be met, the range-finding study is repeated using a modified dose range.
(§2) After determination of the MTD and FED for a compound, each compound was dissolved in a vehicle for administration on day 1 of the study (additional daily doses were stored as frozen aliquots from this initial formulation). Each compound was administered to three individual male Sprague-Dawley rats for each of the two doses (MTD and FED) for one of four different times (0.25 day, 1 day, 3 days, and 5 days), yielding a total of up to 24 animals per compound study. Vehicle choice was based on solubility of the compound, effect of food on adsorption, and the vehicles used in the literature reports examined during the FED selection investigations, described above. Generally, the route and vehicle in which the FED was defined are used. When there was a choice of routes and vehicles, oral routes were chosen over injection routes. Many compounds, especially oncolytics, are only administerable intravenously. In such cases, the compound was administered as an intravenous formulation into the tail vein. Orally administered compounds were given dissolved in either water, 1% carboxymethycellulose (CMC) or corn oil. Intravenously and intraperitoneally administered compounds were given in 0.9% saline. Subcutaneously administered compounds were given in corn oil. Animal body weights were determined at 1 day and, where appropriate, at 4 days, before necropsy, and clinical observations were made on a daily basis. Control animals were dosed with vehicle only. Three male animals were used for each dose and time combination used for the compound treatment.
(§3) Tissue harvest and handling: After the allocated treatment time, the tissues from the animals were harvested. […] All the tissues collected were divided to provide samples for histopathological analyses, and the remainder of each tissue was then snap-frozen.
(§4) Preparation of enriched mRNA: Punch biopsies were taken from the frozen tissues and were completely homogenized before being processed using the MagNA Pure robot. (Roche Diagnostics Corp., Indianapolis, Ind.) in combination with the MagNA Pure LC RNA Isolation kit II (Roche Diagnostics Corp). The amount of lysis buffer was adjusted to allow 1 ml per 50 mg for liver tissue, or 1 ml per 80 mg for all other tissues. After complete homogenization and before loading of the samples into the 32-well MagNA Pure plate, the samples were syringed 5-6 times using a 20-gauge 3-ml syringe to ensure a smooth solution for robotic processing. Tissue sample processing was performed in duplicate wells (loading 150 μl of homogenized sample and 150 μl of additional lysis buffere to each well) of the MagNA Pure LC, which is programmed to extract mRNA using oligo-dT selection technology into a final elution volume of 100 μl. Poly A(+) RNA sample concentration was performed using a standard ethanol precipitation protocol in the presence of glycogen (50 μg/ml). After precipitation the final purified mRNA sample was resuspended in 7 μl DEPC-treated water and quantified using a Ribogreen high-range assay (Molecular Probes) on the Victor-Wallace II Fluorometer (Perkin-Elmer).

[2] = system: Reticulocyte Depletion Signature (Alas2 and peripherin probes), liver
Source text: as §1, §2, §3, §4

[3] = system: Reticulocyte Depletion Signature (Alas2 and peripherin probes), spleen
Source text: as §1, §2, §3, §4

[4] = bone marrow data, signature derived from liver, * = p < 0.01
[5] = liver data, highest training treatment normalised to 100, * = p < 0.01
[6] = spleen data, signature derived from liver, * = p < 0.01

## S=C=Nc1cccc2ccccc12 [1-NAPHTHYL ISOTHIOCYANATE]
[1]; [4]
  SPS (Bone Marrow): 0

## C[C@]12CCC(=O)C=C1CC[C@@H]1[C@@H]2CC[C@@]2(C)[C@H]1CC[C@]2(C)O [17-METHYLTESTOSTERONE]
[2]; [5]
  Signature Projection Score (SPS): 59*

## CN(C)c1nc(N(C)C)nc(N(C)C)n1 [ALTRETAMINE]
[1]; rat, in vivo
  SPS (Bone Marrow): 0
[3]; rat, in vivo
  SPS (Spleen): 0

## CC(C)c1c(C(=O)Nc2ccccc2)c(-c2ccccc2)c(-c2ccc(F)cc2)n1CC[C@@H](O)C[C@@H](O)CC(=O)O [ATORVASTATIN]
[2]; rat, in vivo
  Signature Projection Score (SPS): 29

## C[C@]12CC[C@@H]3c4ccc(O)cc4CC[C@H]3[C@@H]1CC[C@@H]2O [BETA ESTRADIOL]
[2]; [5]
  Signature Projection Score (SPS): 27

## CC(C)(Oc1ccc(CCNC(=O)c2ccc(Cl)cc2)cc1)C(=O)O [BEZAFIBRATE]
[2]; rat, in vivo
  Signature Projection Score (SPS): 16

## CC(C)(c1ccc(O)cc1)c1ccc(O)cc1 [BISPHENOL A]
[1]; rat, in vivo
  SPS (Bone Marrow): 0
[3]; rat, in vivo
  SPS (Spleen): 0

## Oc1c(Cl)cc(Cl)cc1Sc1cc(Cl)cc(Cl)c1O [BITHIONOL]
[1]; rat, in vivo
  SPS (Bone Marrow): 0
[3]; rat, in vivo
  SPS (Spleen): 27

## CS(=O)(=O)OCCCCOS(C)(=O)=O [BUSULFAN]
[2]; rat, in vivo
  Signature Projection Score (SPS): 43
[1]; rat, in vivo
  SPS (Bone Marrow): 0
[3]; rat, in vivo
  SPS (Spleen): 34

## ClC(Cl)(Cl)Cl [CARBON TETRACHLORIDE]
[1]; [4]
  SPS (Bone Marrow): 0

## N.N.O=C([O-])C1(C(=O)[O-])CCC1.[Pt+2] [CARBOPLATIN]
[1]; [4]
  SPS (Bone Marrow): 0
[3]; [6]
  SPS (Spleen): 0

## O=NN(CCCl)C(=O)NCCCl [CARMUSTINE]
[2]; [5]
  Signature Projection Score (SPS): 42
[1]; [4]
  SPS (Bone Marrow): 0
[3]; [6]
  SPS (Spleen): 0

## O=C(O)CCCc1ccc(N(CCCl)CCCl)cc1 [CHLORAMBUCIL]
[2]; [5]
  Signature Projection Score (SPS): 33
[1]; [4]
  SPS (Bone Marrow): 0
[3]; [6]
  SPS (Spleen): 0

## N.N.[Cl][Pt][Cl] [CISPLATIN]
[1]; [4]
  SPS (Bone Marrow): 0
[3]; [6]
  SPS (Spleen): 0

## COc1cccc2c1C(=O)c1c(O)c3c(c(O)c1C2=O)C[C@@](O)(C(C)=O)C[C@@H]3O[C@H]1C[C@H](N)[C@H](O)[C@H](C)O1 [DAUNORUBICIN]
[1]; [4]
  SPS (Bone Marrow): 0

## C[C@@H]1C[C@H]2[C@@H]3CCC4=CC(=O)C=C[C@]4(C)[C@@]3(F)[C@@H](O)C[C@]2(C)[C@@]1(O)C(=O)CO [DEXAMETHASONE]
[2]; rat, in vivo
  Signature Projection Score (SPS): 22

## CC/C(=C(/CC)c1ccc(O)cc1)c1ccc(O)cc1 [DIETHYLSTILBESTROL]
[2]; rat, in vivo
  Signature Projection Score (SPS): 33
[1]; rat, in vivo
  SPS (Bone Marrow): 0
[3]; rat, in vivo
  SPS (Spleen): 88*

## C[C@H]1O[C@@H](n2cc(F)c(=O)[nH]c2=O)[C@H](O)[C@@H]1O [DOXIFLURIDINE]
[1]; rat, in vivo
  SPS (Bone Marrow): 0

## C[C@]12CC[C@@H]3c4ccc(O)cc4CC[C@H]3[C@@H]1C[C@@H](O)[C@@H]2O [ESTRIOL]
[2]; rat, in vivo
  Signature Projection Score (SPS): 41

## CCO [ETHANOL]
[1]; rat, in vivo
  SPS (Bone Marrow): 0

## C#C[C@]1(O)CC[C@H]2[C@@H]3CCc4cc(O)ccc4[C@H]3CC[C@@]21C [ETHINYLESTRADIOL]
[2]; rat, in vivo
  Signature Projection Score (SPS): 75*

## OC(Cn1cncn1)(Cn1cncn1)c1ccc(F)cc1F [FLUCONAZOLE]
[2]; rat, in vivo
  Signature Projection Score (SPS): 26

## CC(C)n1c(/C=C/C(O)CC(O)CC(=O)O)c(-c2ccc(F)cc2)c2ccccc21 (centres unmarked) [FLUVASTATIN]
[2]; rat, in vivo
  Signature Projection Score (SPS): 0

## Cc1ccc(C)c(OCCCC(C)(C)C(=O)O)c1 [GEMFIBROZIL]
[2]; rat, in vivo
  Signature Projection Score (SPS): 18

## CC1=C(/C=C/C(C)=C/C=C/C(C)=C\C(=O)O)C(C)(C)CCC1 [ISOTRETINOIN]
[2]; rat, in vivo
  Signature Projection Score (SPS): 23

## CC(=O)N1CCN(c2ccc(OCC3COC(Cn4ccnc4)(c4ccc(Cl)cc4Cl)O3)cc2)CC1 (centres unmarked) [KETOCONAZOLE]
[2]; rat, in vivo
  Signature Projection Score (SPS): 29

## Cc1oncc1C(=O)Nc1ccc(C(F)(F)F)cc1 [LEFLUNOMIDE]
[2]; rat, in vivo
  Signature Projection Score (SPS): 22
[1]; rat, in vivo
  SPS (Bone Marrow): 0
[3]; rat, in vivo
  SPS (Spleen): 71*

## O=NN(CCCl)C(=O)NC1CCCCC1 [LOMUSTINE]
[2]; [5]
  Signature Projection Score (SPS): 18
[1]; [4]
  SPS (Bone Marrow): 0
[3]; [6]
  SPS (Spleen): 0

## CC[C@H](C)C(=O)O[C@H]1C[C@@H](C)C=C2C=C[C@H](C)[C@H](CC[C@@H]3C[C@@H](O)CC(=O)O3)[C@H]21 [LOVASTATIN]
[2]; rat, in vivo
  Signature Projection Score (SPS): 26

## CN(Cc1cnc2nc(N)nc(N)c2n1)c1ccc(C(=O)N[C@@H](CCC(=O)O)C(=O)O)cc1 [METHOTREXATE]
[2]; rat, in vivo
  Signature Projection Score (SPS): 72*
[1]; rat, in vivo
  SPS (Bone Marrow): 0
[3]; rat, in vivo
  SPS (Spleen): 148*

## Clc1ccc(COC(Cn2ccnc2)c2ccc(Cl)cc2Cl)c(Cl)c1 (centres unmarked) [MICONAZOLE]
[2]; rat, in vivo
  Signature Projection Score (SPS): 38

## CC#C[C@]1(O)CC[C@H]2[C@@H]3CCC4=CC(=O)CCC4=C3[C@@H](c3ccc(N(C)C)cc3)C[C@@]21C [MIFEPRISTONE]
[2]; rat, in vivo
  Signature Projection Score (SPS): 24

## COc1c(C)c2c(c(O)c1C/C=C(\C)CCC(=O)OCCN1CCOCC1)C(=O)OC2 [MYCOPHENOLATE MOFETIL]
[1]; [4]
  SPS (Bone Marrow): 0

## CN(C)C=O [N,N-DIMETHYLFORMAMIDE]
[1]; [4]
  SPS (Bone Marrow): 0
[3]; [6]
  SPS (Spleen): 0

## CCN(CC)N=O [N-NITROSODIETHYLAMINE]
[1]; [4]
  SPS (Bone Marrow): 0
[3]; [6]
  SPS (Spleen): 0

## C#C[C@]1(OC(C)=O)CC[C@H]2[C@@H]3CCC4=CC(=O)CC[C@@H]4[C@H]3CC[C@@]21C [NORETHINDRONE ACETATE]
[2]; rat, in vivo
  Signature Projection Score (SPS): 26

## O=C1[O][Pt]2([NH][C@@H]3CCCC[C@H]3[NH]2)[O]C1=O [OXALIPLATIN]
[1]; [4]
  SPS (Bone Marrow): 18

## O=C(c1ccc(OCCN2CCCCC2)cc1)c1c(-c2ccc(O)cc2)sc2cc(O)ccc12 [RALOXIFENE]
[2]; rat, in vivo
  Signature Projection Score (SPS): 23

## CC[C@]1(O)C[C@@H]2CN(CCc3c([nH]c4ccccc34)[C@@](C(=O)OC)(c3cc4c(cc3OC)N(C)[C@H]3[C@@](O)(C(=O)OC)[C@H](OC(C)=O)[C@]5(CC)C=CCN6CC[C@]43[C@@H]65)C2)C1 [VINBLASTINE]
[1]; rat, in vivo
  SPS (Bone Marrow): 0

## CC[C@]1(O)C[C@H]2CN(CCc3c([nH]c4ccccc34)[C@@](C(=O)OC)(c3cc4c(cc3OC)N(C=O)[C@H]3[C@@](O)(C(=O)OC)[C@H](OC(C)=O)[C@]5(CC)C=CCN6CC[C@]43[C@@H]65)C2)C1 [VINCRISTINE]
[1]; rat, in vivo
  SPS (Bone Marrow): 126*

## CCC1=C[C@@H]2CN(C1)Cc1c([nH]c3ccccc13)[C@@](C(=O)OC)(c1cc3c(cc1OC)N(C)[C@H]1[C@@](O)(C(=O)OC)[C@H](OC(C)=O)[C@]4(CC)C=CCN5CC[C@]31[C@@H]54)C2 [VINORELBINE]
[1]; rat, in vivo
  SPS (Bone Marrow): 132*
